Experimental data published in ChEMBL document CHEMBL5653615 (J Biol Chem, 2013).

How the values were obtained:
[1] = molecular target: T1, Tyrosine-protein kinase Tec (Homo sapiens) (UniProt P42680); test: Inhibition of human TEC at 500 nM by HotSpot assay relative to control
T1 sequence (whole entry): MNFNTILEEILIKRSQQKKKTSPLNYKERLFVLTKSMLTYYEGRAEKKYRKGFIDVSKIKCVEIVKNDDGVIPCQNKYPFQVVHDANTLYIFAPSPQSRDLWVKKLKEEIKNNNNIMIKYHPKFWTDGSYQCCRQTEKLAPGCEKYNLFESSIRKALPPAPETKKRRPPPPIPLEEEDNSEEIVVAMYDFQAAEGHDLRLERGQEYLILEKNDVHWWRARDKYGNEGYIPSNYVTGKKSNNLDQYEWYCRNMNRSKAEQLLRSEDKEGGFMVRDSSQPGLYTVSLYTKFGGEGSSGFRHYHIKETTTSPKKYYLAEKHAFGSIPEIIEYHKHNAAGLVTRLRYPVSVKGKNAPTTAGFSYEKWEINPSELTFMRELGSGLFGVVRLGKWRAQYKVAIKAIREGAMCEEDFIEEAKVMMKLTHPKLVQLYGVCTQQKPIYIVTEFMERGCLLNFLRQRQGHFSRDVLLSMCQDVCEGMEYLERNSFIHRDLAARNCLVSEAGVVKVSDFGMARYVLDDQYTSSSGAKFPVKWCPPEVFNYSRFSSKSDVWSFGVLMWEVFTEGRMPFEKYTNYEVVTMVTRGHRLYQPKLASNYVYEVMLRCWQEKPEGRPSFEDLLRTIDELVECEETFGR

[2] = molecular target: T2, Serine/threonine-protein kinase ULK2 (Homo sapiens) (UniProt Q8IYT8); test: Inhibition of human ULK2 at 500 nM by HotSpot assay relative to control
T2 sequence (whole entry): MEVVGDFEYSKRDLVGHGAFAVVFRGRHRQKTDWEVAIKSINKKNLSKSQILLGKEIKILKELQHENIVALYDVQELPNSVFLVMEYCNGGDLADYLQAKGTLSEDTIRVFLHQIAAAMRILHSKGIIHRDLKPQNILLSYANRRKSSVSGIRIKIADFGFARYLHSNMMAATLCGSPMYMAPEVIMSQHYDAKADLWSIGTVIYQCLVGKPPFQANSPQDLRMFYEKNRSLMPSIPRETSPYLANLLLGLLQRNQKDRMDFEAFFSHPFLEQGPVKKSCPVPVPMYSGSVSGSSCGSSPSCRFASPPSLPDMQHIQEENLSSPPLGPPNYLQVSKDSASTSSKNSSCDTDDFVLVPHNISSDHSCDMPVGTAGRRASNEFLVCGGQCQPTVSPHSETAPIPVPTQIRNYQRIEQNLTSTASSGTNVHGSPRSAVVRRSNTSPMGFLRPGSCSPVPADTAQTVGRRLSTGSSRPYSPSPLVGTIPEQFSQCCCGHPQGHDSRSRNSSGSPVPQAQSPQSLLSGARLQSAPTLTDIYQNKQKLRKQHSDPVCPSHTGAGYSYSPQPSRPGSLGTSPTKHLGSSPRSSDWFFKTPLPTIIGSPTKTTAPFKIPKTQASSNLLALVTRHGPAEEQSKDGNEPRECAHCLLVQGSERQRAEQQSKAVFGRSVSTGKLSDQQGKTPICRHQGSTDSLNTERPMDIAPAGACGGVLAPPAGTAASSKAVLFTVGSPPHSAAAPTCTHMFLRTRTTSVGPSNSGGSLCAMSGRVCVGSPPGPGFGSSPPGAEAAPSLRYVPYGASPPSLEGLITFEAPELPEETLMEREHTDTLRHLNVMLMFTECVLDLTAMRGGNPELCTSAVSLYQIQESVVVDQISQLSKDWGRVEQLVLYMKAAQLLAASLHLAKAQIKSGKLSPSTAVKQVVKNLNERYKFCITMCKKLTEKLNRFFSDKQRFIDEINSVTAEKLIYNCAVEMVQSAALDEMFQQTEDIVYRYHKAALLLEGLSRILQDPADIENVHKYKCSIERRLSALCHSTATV

[3] = molecular target: Fibroblast growth factor receptor 1 (Homo sapiens) (UniProt P11362); test: Inhibition of human FGFR1 at 500 nM by HotSpot assay relative to control
[4] = molecular target: T3, Homeodomain-interacting protein kinase 4 (Homo sapiens) (UniProt Q8NE63); test: Inhibition of human HIPK4 at 500 nM by HotSpot assay relative to control
T3 sequence (whole entry): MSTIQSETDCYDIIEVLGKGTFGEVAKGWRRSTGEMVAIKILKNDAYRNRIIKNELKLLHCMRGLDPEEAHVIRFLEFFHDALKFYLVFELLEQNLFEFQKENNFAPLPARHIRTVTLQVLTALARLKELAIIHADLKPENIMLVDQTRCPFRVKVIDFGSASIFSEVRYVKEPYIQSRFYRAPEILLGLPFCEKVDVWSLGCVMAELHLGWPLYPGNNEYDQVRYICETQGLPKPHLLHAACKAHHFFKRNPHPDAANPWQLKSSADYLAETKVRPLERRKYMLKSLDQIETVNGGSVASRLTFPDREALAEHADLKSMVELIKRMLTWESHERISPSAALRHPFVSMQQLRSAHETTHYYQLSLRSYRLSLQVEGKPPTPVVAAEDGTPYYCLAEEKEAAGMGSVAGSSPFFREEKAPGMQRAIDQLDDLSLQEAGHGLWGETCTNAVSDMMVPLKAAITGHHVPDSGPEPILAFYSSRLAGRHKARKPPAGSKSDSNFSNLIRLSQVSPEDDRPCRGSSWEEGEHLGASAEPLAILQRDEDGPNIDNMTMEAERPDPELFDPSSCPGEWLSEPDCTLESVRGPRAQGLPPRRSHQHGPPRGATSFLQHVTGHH

[5] = molecular target: T4, Mitogen-activated protein kinase 13 (Homo sapiens) (UniProt O15264); test: Inhibition of human MAPK13 at 500 nM by HotSpot assay relative to control
T4 sequence (whole entry): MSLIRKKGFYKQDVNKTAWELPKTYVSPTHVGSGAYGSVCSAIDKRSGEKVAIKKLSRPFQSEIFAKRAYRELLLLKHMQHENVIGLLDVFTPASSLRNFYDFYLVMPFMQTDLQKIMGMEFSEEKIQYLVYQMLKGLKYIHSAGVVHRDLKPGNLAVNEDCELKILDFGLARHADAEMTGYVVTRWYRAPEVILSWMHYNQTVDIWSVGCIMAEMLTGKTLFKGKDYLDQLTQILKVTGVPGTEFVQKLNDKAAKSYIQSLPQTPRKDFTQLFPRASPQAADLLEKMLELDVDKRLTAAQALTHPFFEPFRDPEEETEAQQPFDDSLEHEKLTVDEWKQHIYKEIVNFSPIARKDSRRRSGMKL

Fibroblast growth factor receptor 1 (Homo sapiens), sequence (P11362 22-822 limits assumed): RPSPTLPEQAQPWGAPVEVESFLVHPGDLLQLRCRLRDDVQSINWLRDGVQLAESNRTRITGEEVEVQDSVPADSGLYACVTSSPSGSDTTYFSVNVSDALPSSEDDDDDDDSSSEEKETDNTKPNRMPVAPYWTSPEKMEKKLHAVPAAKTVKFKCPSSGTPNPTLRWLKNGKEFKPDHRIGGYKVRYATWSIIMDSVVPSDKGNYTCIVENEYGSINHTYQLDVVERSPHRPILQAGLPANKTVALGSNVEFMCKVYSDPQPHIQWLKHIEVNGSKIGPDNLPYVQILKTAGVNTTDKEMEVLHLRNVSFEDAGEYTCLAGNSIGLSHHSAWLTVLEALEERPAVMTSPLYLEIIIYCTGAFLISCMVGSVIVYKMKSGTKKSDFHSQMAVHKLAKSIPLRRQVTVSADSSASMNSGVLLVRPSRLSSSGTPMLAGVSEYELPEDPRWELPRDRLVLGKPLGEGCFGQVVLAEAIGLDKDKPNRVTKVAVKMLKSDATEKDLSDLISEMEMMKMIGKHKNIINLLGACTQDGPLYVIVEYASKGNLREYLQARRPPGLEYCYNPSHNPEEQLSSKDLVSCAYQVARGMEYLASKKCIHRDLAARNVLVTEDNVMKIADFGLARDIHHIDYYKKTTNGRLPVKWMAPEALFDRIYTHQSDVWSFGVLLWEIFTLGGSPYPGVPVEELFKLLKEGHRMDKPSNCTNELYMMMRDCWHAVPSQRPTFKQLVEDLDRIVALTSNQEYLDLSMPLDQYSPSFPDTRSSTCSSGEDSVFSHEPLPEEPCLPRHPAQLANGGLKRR

SMILES	inhibition [1] [%]	inhibition [2] [%]	inhibition [3] [%]	inhibition [4] [%]	inhibition [5] [%]
Nc1n[nH]c2nnc(-c3c(-c4ccccc4)nn4ccccc34)cc12	3.88	0.02	5.28	4.73	-0.81
Oc1n[nH]c2nnc(-c3c(-c4ccccc4)nn4ccccc34)cc12	-3	0.86	-1.96	9.6	3.76
